Values quoted from earlier work as cited in US7625901B2, “Substituted monocyclic CGRP receptor antagonists” (Merck & Co., Inc., priority 2006, dated 2009).
No end group written: not given here.

Tests used:
[1] = test system: facial blood flow; conditions: marmoset, electrical stimulation of the trigeminal ganglion
[2] = test system: headache induced by CGRP infusion; conditions: control group
[3] = test system: acute attacks of migraine; conditions: clinical trials
[4] = test system: diameter of the middle meningeal artery; conditions: rats, electrical stimulation of the dura mater, prior administration
[5] = test system: facial blood flow; conditions: rat, trigeminal ganglion stimulation

Q: Which results are given for `NCCCC[C@H](NC(=O)[C@@H](Cc1cc(Br)c(O)c(Br)c1)NC(=O)N1CCC(N2Cc3ccccc3NC2=O)CC1)C(=O)N1CCN(c2ccncc2)CC1` [BIBN4096BS]?
A: block of increase in facial blood flow [1]: could be blocked; prevention of headache induced by CGRP infusion [2]: able to prevent headache; treating acute attacks of migraine [3]: effective

Q: Which results are given for “CGRP(8-37): a peptide CGRP antagonist; fragment of CGRP that lacks seven N-terminal amino acid residues (VTHRLAGLLSRSGGVVKNNFVPTNVGSKAF; ends and bridges not checked; UniProt P06881 90-119, looked up, fragment)”?
A: block of increased diameter of the middle meningeal artery [4]: blocked; inhibition of increased facial blood flow [5]: inhibited
